Measurements from patent US4738983A, “Ethylenediamine and guanidine-derivatives” (Degussa aktiengesellschaft, priority 1982, dated 1988).

Test system: carbachol spasm of the rat stomach
Assay: carbachol spasm of the rat stomach (stomach-spasmolytic effect)
Format: in vivo
Settings: intraduodenal, relative to Ranitidin
From the text: The test substances are applied intraduodenally. In this model, the stomach-spasmolytic effect of the compound according to Example 1 is, for example 3.8 times greater than that of "Ranitidin".

SMILES: CNC(=C[N+](=O)[O-])NCCSCc1ccc(CNC2C3CC4C(C3)C42)o1 (stereo not shown) [Example 1, N-[2-[[5-(tricyclo(2.2.1.0^2.6)hept-3-yl-amino-methyl)-2-furanyl]-methylthio]-ethyl]-N'-methyl-2-nitro-1,1-ethylene-diamine]
- stomach-spasmolytic effect, times greater than that of Ranitidin: 3.8 times
